Test results from PubChem BioAssay (NCI).
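These data come from cells grown in 96-well plates and exposed to compound for 48 hours at five concentrations. Abbreviation: GI50, concentration required for 50% inhibition of growth. The concentration for full growth arrest is given as TGI.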

What follows are compounds tested on MDA-MB-468 breast (assay: inhibition of tumour cell growth, NCI panel, 48 h).

Q: With CCCCCn1c(=N)n(CC(O)COc2cccc(C)c2)c2ccccc21 (stereo not drawn) as the compound, how does the GI50 read?
A: 2380 nM

Q: What about the TGI of the same compound?
A: 5290 nM

Q: What does the source list for C[C@H](Nc1ncnc2nc[nH]c12)c1cc2cccc(Cl)c2c(=O)n1-c1ccccc1?
A: GI50: 1550 nM; TGI: 22900 nM

Q: Which GI50 does the source give for Cc1ccc2c(ccc3c[n+]4c5ccccc5ccc4n32)c1 here?
A: 541 nM

Q: And the TGI?
A: 2470 nM

Q: Which GI50 does the source give for COC(=O)/C=C/C=C(c1ccccc1)c1ccccc1 here?
A: 3470 nM

Q: And the TGI?
A: 18700 nM

Q: What does the source list for C=CCc1c2c(c(OC)c3ccoc13)C(=O)/C(=C/c1ccccc1OC)O2?
A: GI50: 2460 nM; TGI: 7850 nM

Q: What does the source list for CNC(=O)n1ccc2cc(Oc3ccnc(NC(=O)c4ccc(C5CCN(CCO)CC5)cc4)c3)c(OCCOC)cc21?
A: GI50: 1990 nM; TGI: 4220 nM

Q: For COc1c(CCC[P+](c2ccccc2)(c2ccccc2)c2ccccc2)cc2c(c1OC)OCO2, which GI50 is on record?
A: 256 nM

Q: What about the TGI of the same compound?
A: 1180 nM

Q: Which GI50 does the source give for CCN1C(=O)N(CC)C2C1NN=c1s/c(=C\c3cccnc3)c(=O)n12 (stereo not drawn) here?
A: 363 nM

Q: And the TGI?
A: > 100000 nM

Q: Cc1ccc(/C=C2\CN(C(=O)OC(C)(C)C)C/C(=C\c3ccc(C)cc3)C2=O)cc1 was tested. Which GI50 did it give?
A: 87.8 nM

Q: What about the TGI of the same compound?
A: > 100000 nM

Q: Which results are given for O=C1OC(=O)C(c2c[nH]c3ccccc23)=C1c1c[nH]c2ccccc12?
A: GI50: > 19300 nM; TGI: > 25000 nM

Q: Which results are given for COc1cccc(/C=C/C(=O)c2cccc(Nc3nc(Nc4ccccc4)nc(Nc4ccccc4)n3)c2)c1?
A: GI50: 2500 nM; TGI: 11300 nM

Q: For COc1cc(Cl)cc(-c2nn(C(=O)NCCN3CCOCC3)cc2-c2ccncc2)c1, which GI50 is on record?
A: 2000 nM

Q: And the TGI?
A: 11500 nM

Q: Which results are given for CC(C)(C)C[C@H]1NC(C(=O)NCC[C@H](O)CO)[C@H](c2cccc(Cl)c2)[C@@]12C(=O)Nc1cc(Cl)c(F)cc12 (stereo partly drawn)?
A: GI50: 12400 nM; TGI: 27300 nM

Q: COC1(C(=O)N[C@@H](C)c2ccc(-n3cc(F)cn3)nc2)CCC(c2nc(C)cc(Nc3cc(C)[nH]n3)n2)CC1 (stereo partly drawn) was tested. Which GI50 did it give?
A: 1980 nM

Q: What about the TGI of the same compound?
A: 6960 nM

Q: What does the source list for CCN(CC)c1ccc(C(=C2C=CC(=[N+](CC)Cc3cccc(S(=O)(=O)O)c3)C=C2)c2ccc(N(CC)Cc3cccc(S(=O)(=O)O)c3)cc2)cc1?
A: GI50: 2580 nM; TGI: 15900 nM

Q: Which GI50 does the source give for C[C@@H](C(=O)Nc1ccc(Cl)cc1)C1CCC(c2ccnc3ccc(F)cc23)CC1 (stereo partly drawn) here?
A: 2700 nM

Q: And the TGI?
A: 14100 nM

Q: N#Cc1cnc2cc(OC[C@H](O)CO)c(NC(=O)CC3CSSC3)cc2c1Nc1ccc(OCc2cccc(F)c2)c(Cl)c1 was tested. Which GI50 did it give?
A: 118 nM

Q: And the TGI?
A: 363 nM

Q: What does the source list for O=CNc1c(Cl)cc2c(c1Cl)Cc1cc([N+](=O)[O-])ccc1-2?
A: GI50: 317 nM; TGI: 1270 nM

Q: Which results are given for O=S(=O)(NC1CC2CCC1C2)c1ccc2c(c1)C(=NO)c1cc(S(=O)(=O)NC3CC4CCC3C4)ccc1-2 (stereo not drawn)?
A: GI50: 327 nM; TGI: 1090 nM

Q: For Cc1c(C(=O)/C=C/c2csc3ccccc23)[n+](=O)c2ccccc2n1[O-], which GI50 is on record?
A: 1710 nM

Q: What about the TGI of the same compound?
A: 3600 nM

Q: For COC(=O)[C@@H](C)C[C@H](Cc1ccccc1)NC(=O)c1nc([C@@H](C[C@H](C(C)C)N(C)C(=O)[C@@H](NC(=O)[C@H]2CCCCN2C)C(C)C)OC(C)=O)sc1C, which GI50 is on record?
A: < 1.67 nM

Q: What about the TGI of the same compound?
A: > 16700 nM

Q: Which GI50 does the source give for CNC(=O)c1cncc(/C=C/c2ccccc2C)c1 here?
A: > 25000 nM

Q: What about the TGI of the same compound?
A: > 25000 nM

Q: O=C(CCCCCCNC(=O)C(O)(O)C(F)(F)F)Nc1ccc(-c2ccccc2)cc1 was tested. Which GI50 did it give?
A: 861 nM

Q: And the TGI?
A: 3100 nM

Q: Which results are given for CC1SC(c2c(Cl)cccc2Cl)N(NC(=O)c2[nH]c3ccc(F)cc3c2-c2ccccc2)C1=O (stereo not drawn)?
A: GI50: 3720 nM; TGI: 29900 nM

Q: For C=C1C(=O)O[C@H]2[C@H]1CC/C(COC(=O)NCc1ccccc1OC)=C\CC[C@@]1(C)O[C@@H]21, which GI50 is on record?
A: 669 nM

Q: What about the TGI of the same compound?
A: 2800 nM

Q: COc1ccc2c(c1)O/C(=C\c1cccc(OCC(=O)Nc3nc4c(s3)CCCC4)c1)C2=O was tested. Which GI50 did it give?
A: 1710 nM

Q: And the TGI?
A: 48400 nM

Q: What does the source list for CCN(Cc1ccc(F)c(F)c1)c1ccc(CO)c(Cl)c1?
A: GI50: 16.2 nM; TGI: 43.8 nM

Q: COC(=O)[C@H](Cc1cn(C)cn1)NC(=O)[C@H](Cc1c[nH]c2ccccc12)NC(=O)Nc1cc(C(F)(F)F)cc(C(F)(F)F)c1 was tested. Which GI50 did it give?
A: > 10000 nM

Q: What about the TGI of the same compound?
A: > 10000 nM

Q: For COc1cc(C2c3cc4c(cc3OC(N3CCCC3)C2C)OCO4)cc(OC)c1OC (stereo not drawn), which GI50 is on record?
A: 416 nM

Q: And the TGI?
A: 54800 nM
